Experimental data reported in ChEMBL document CHEMBL1201862, “PubChem BioAssay data set” (2004).
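Following 48 hours of exposure in 96-well plates, responses at five concentrations were used to interpolate endpoints linearly. At the GI50, growth is halved.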 Active and inactive are the calls of the source. No stated cut-off is given here; in the data, active = GI50 up to about 1.1 µM and inactive = higher.

Legend:
Assay in all cases: growth of human tumour cells (NCI), 48 h
[1] = system: HOP-62
[2] = system: SN12C
[3] = system: IGROV-1
[4] = system: SW-620
[5] = system: BT-549
[6] = system: SK-MEL-28
[7] = system: OVCAR-8
[8] = system: SF-268
[9] = system: Malme-3M
[10] = system: HCC 2998
[11] = system: A498
[12] = system: KM12
[13] = system: PC-3
[14] = system: HCT-15
[15] = system: RXF 393
[16] = system: HOP-92
[17] = system: RPMI-8226
[18] = system: NCI-H460
[19] = system: HL-60
[20] = system: NCI-H226
[21] = system: SK-OV-3
[22] = system: UACC-62
[23] = system: SK-MEL-2
[24] = system: Hs-578T
[25] = system: CCRF-CEM
[26] = system: NCI/ADR-RES
[27] = system: OVCAR-5
[28] = system: HT-29
[29] = system: K562
[30] = system: NCI-H23
[31] = system: TK-10
[32] = system: U-251
[33] = system: SNB-75
[34] = system: LOX IMVI
[35] = system: MCF7
[36] = system: SR
[37] = system: NCI-H522
[38] = system: UACC-257
[39] = system: MDA-N
[40] = system: MDA-MB-231
[41] = system: ACHN
[42] = system: M14
[43] = system: SK-MEL-5
[44] = system: 786-0
[45] = system: DU-145
[46] = system: MDA-MB-435
[47] = system: A549
[48] = system: T47D
[49] = system: SF-295
[50] = system: OVCAR-3
[51] = system: CAKI-1
[52] = system: UO-31
[53] = system: EKVX
[54] = system: OVCAR-4
[55] = system: COLO 205
[56] = system: HCT-116
[57] = system: SNB-19
[58] = system: SF-539
[59] = system: MOLT-4

Nc1cccc2cc(S(=O)(=O)Nc3ccc(C(=O)O)cc3)ccc12
GI50 [1]: > 100 µM (inactive)
GI50 [2]: > 100 µM (inactive)
GI50 [3]: > 100 µM (inactive)
GI50 [4]: > 100 µM (inactive)
GI50 [5]: > 100 µM (inactive)
GI50 [6]: > 100 µM (inactive)
GI50 [7]: > 100 µM (inactive)
GI50 [8]: > 100 µM (inactive)
GI50 [9]: > 100 µM (inactive)
GI50 [10]: > 100 µM (inactive)
GI50 [11]: > 100 µM (inactive)
GI50 [12]: > 100 µM (inactive)
GI50 [13]: > 100 µM (inactive)
GI50 [14]: > 100 µM
GI50 [15]: > 100 µM (inactive)
GI50 [16]: > 100 µM (inactive)
GI50 [17]: > 100 µM (inactive)
GI50 [18]: > 100 µM (inactive)
GI50 [19]: > 100 µM (inactive)
GI50 [20]: > 100 µM (inactive)
GI50 [21]: > 100 µM (inactive)
GI50 [22]: > 100 µM (inactive)
GI50 [23]: > 100 µM (inactive)
GI50 [24]: > 100 µM (inactive)
GI50 [25]: > 100 µM (inactive)
GI50 [26]: > 100 µM (inactive)
GI50 [27]: > 100 µM (inactive)
GI50 [28]: > 100 µM (inactive)
GI50 [29]: > 100 µM (inactive)
GI50 [30]: > 100 µM (inactive)
GI50 [31]: > 100 µM (inactive)
GI50 [32]: > 100 µM (inactive)
GI50 [33]: 98.2 µM (inactive)
GI50 [34]: > 100 µM (inactive)
GI50 [35]: > 100 µM (inactive)
GI50 [36]: > 100 µM (inactive)
GI50 [37]: > 100 µM (inactive)
GI50 [38]: > 100 µM (inactive)
GI50 [39]: > 100 µM (inactive)
GI50 [40]: > 100 µM (inactive)
GI50 [41]: > 100 µM (inactive)
GI50 [42]: > 100 µM (inactive)
GI50 [43]: > 100 µM (inactive)
GI50 [44]: > 100 µM (inactive)
GI50 [45]: > 100 µM (inactive)
GI50 [46]: > 100 µM (inactive)
GI50 [47]: > 100 µM (inactive)
GI50 [48]: > 100 µM (inactive)
GI50 [49]: > 100 µM (inactive)
GI50 [50]: > 100 µM (inactive)
GI50 [51]: > 100 µM (inactive)
GI50 [52]: > 100 µM (inactive)
GI50 [53]: > 100 µM (inactive)
GI50 [54]: > 100 µM (inactive)
GI50 [55]: > 100 µM (inactive)
GI50 [56]: > 100 µM (inactive)
GI50 [57]: > 100 µM (inactive)

CCn1c(SCC(=O)NNC(=S)Nc2ccc([N+](=O)[O-])cc2)nc2ccccc2c1=O
GI50 [1]: 81.1 µM (inactive)
GI50 [2]: 50.9 µM (inactive)
GI50 [3]: > 100 µM (inactive)
GI50 [4]: 86.5 µM (inactive)
GI50 [5]: 53.8 µM (inactive)
GI50 [6]: 57.5 µM (inactive)
GI50 [7]: > 100 µM (inactive)
GI50 [8]: 60.1 µM (inactive)
GI50 [9]: 73.5 µM (inactive)
GI50 [10]: 50.1 µM (inactive)
GI50 [11]: 48.2 µM (inactive)
GI50 [12]: 68.2 µM (inactive)
GI50 [13]: 41.4 µM (inactive)
GI50 [14]: 47 µM
GI50 [15]: 34.5 µM (inactive)
GI50 [58]: > 100 µM (inactive)
GI50 [17]: 29.9 µM (inactive)
GI50 [18]: 48.8 µM (inactive)
GI50 [19]: 40.7 µM (inactive)
GI50 [20]: 90.4 µM (inactive)
GI50 [21]: > 100 µM (inactive)
GI50 [59]: 23.2 µM (inactive)
GI50 [22]: 48.9 µM (inactive)
GI50 [23]: > 100 µM (inactive)
GI50 [24]: > 100 µM (inactive)
GI50 [25]: 37.2 µM (inactive)
GI50 [26]: > 100 µM (inactive)
GI50 [27]: > 100 µM (inactive)
GI50 [29]: 42.7 µM (inactive)
GI50 [30]: 62.5 µM (inactive)
GI50 [31]: 68.9 µM (inactive)
GI50 [32]: 73.3 µM (inactive)
GI50 [33]: 83.4 µM (inactive)
GI50 [34]: 54.3 µM (inactive)
GI50 [35]: 83.4 µM (inactive)
GI50 [36]: 23 µM (inactive)
GI50 [37]: 39.8 µM (inactive)
GI50 [38]: > 100 µM (inactive)
GI50 [39]: > 100 µM (inactive)
GI50 [40]: > 100 µM (inactive)
GI50 [41]: > 100 µM (inactive)
GI50 [42]: > 100 µM (inactive)
GI50 [43]: 79.6 µM (inactive)
GI50 [44]: 60.5 µM (inactive)
GI50 [45]: > 100 µM (inactive)
GI50 [46]: > 100 µM (inactive)
GI50 [47]: > 100 µM (inactive)
GI50 [48]: 64.3 µM (inactive)
GI50 [49]: 58.2 µM (inactive)
GI50 [50]: 39.2 µM (inactive)
GI50 [51]: > 100 µM (inactive)
GI50 [52]: 39.5 µM (inactive)
GI50 [53]: > 100 µM (inactive)
GI50 [54]: 48.5 µM (inactive)
GI50 [55]: 47.5 µM (inactive)
GI50 [56]: 35.3 µM (inactive)
GI50 [57]: 81.7 µM (inactive)
